{"source": "patent US6365625B1", "about": "“Compound for inhibiting HIV infectivity” (Procept, Inc., priority 1993, dated 2002)", "key": {"[1]": {"system": "gp120-mediated syncytium formation", "test": "Inhibition of gp120-mediated syncytium formation (HL2/3 and HeLa-CD4-LTR-β-gal cells)", "details": "48 hours; PIC 024.4 based on 100% polymer by weight", "protocol": "The effect of test compound on syncytium formation was evaluated using an assay developed by Dr. George Pavlakis and coworkers (Ciminale, V. et al., AIDS Res. Hum. Retro-viruses 6:1281-1287 (1990)). […] The cultures were then incubated in the presence of drug for 48 hours at 37° C., fixed and stained with X-gal. Blue syncytia were counted using an inverted microscope, and percent inhibition and IC50 values were calculated."}, "HIV-1 (JR-CSF)": {"system": "HIV-1 (JR-CSF)", "format": "cell-based"}, "HIV-1 14aPre": {"system": "HIV-1 14aPre", "test": "Drug combination studies, neutralization of HIV-1 14aPre", "format": "cell-based"}, "HIV-1 (ADA)": {"system": "HIV-1 (ADA)", "test": "microbe, parasite or virus in culture", "format": "cell-based", "details": "Human immunodeficiency virus 1, Monocyte, monocytes"}, "[2]": {"biological_target": "T1, OKT4 binding to recombinant sCD4 (Homo sapiens, UniProt P01730)", "T1 construct": "Plates coated with recombinant, soluble CD4 were treated with antibody", "test": "Inhibition of monoclonal antibody OKT4 binding to CD4 (ELISA)", "details": "antibody 30 ng/ml", "experimental": "(§1) A panel of related ELISA systems was used to evaluate the effect of test compounds on the binding of various monoclonal antibodies to recombinant sCD4 absorbed on plastic. Two of these antibodies, Leu3A and 19Thy, are directed against gp120 binding site on CD4. […] The ELISA formats were similar to those used to measure gp120 binding to CD4. Plates coated with recombinant, soluble CD4 were treated with antibody (30 ng/ml) and serial dilutions of drug. After incubation and washing, bound antibody was detected using an appropriate isotype-specific anti-immunoglobulin alkaline phosphatase conjugate."}, "gp120/CD4": {"biological_target": "T2, gp120/CD4 (Homo sapiens, UniProt P01730)", "T2 construct": "recombinant, soluble four-domain CD4 (sCD4) expressed in insect cells; host or cells: insect cells (sCD4)", "test": "biochemical", "format": "binding", "protocol": "Polystyrene 96-well microtiter plates were treated with a 1 μg/ml solution of recombinant, soluble four-domain CD4 (sCD4) expressed in insect cells (100 μl/well) and allowed to incubate for two hours at room temperature. Plates were blocked for two hours at 4° C. with phosphate-buffered saline (PBS) containing 0.05% Tween-20 and 10 mg/ml bovine serum albumin (PBSTB, 200 μl/well), and then washed five times with PBS containing 0.05% Tween-20. Fifty microliters of 60 ng/ml recombinant gp120 (IIIB isolate) and 50 μl of each drug dilution in PBSTB were added to duplicate wells, and the plate was incubated overnight at 4° C. The plate was then washed five times with PBST and treated with a 210 μg/ml solution of monoclonal antibody NEA 9205 (100 gp120-III/well). This antibody recognizes the V3 loop region of gp120-IIIB. After incubation for 2 hours at 4° C., the plate was washed five times with PBST and treated with an anti-mouse IgGl antibody conjugated to alkaline phosphatase. After an additional incubation for 1 hour at 4° C., the plate was washed five times with PBST, treated with a p-nitrophenyl phosphate substrate solution, incubated for about 30 minutes at room temperature, and monitored for color development at 405 nm. […]"}, "[3]": {"biological_target": "T3, Leu3A binding to recombinant sCD4 (Homo sapiens, UniProt P01730)", "T3 construct": "Plates coated with recombinant, soluble CD4 were treated with antibody", "test": "Inhibition of monoclonal antibody Leu3A binding to CD4 (ELISA)", "details": "antibody 30 ng/ml; read-out: IC50 MAb binding inhibition, Leu3A (converted)", "experimental": "as §1"}, "[4]": {"biological_target": "T4, 19Thy binding to recombinant sCD4 (Homo sapiens, UniProt P01730)", "T4 construct": "Plates coated with recombinant, soluble CD4 were treated with antibody", "test": "Inhibition of monoclonal antibody 19Thy binding to CD4 (ELISA)", "details": "antibody 30 ng/ml; read-out: IC50 MAb binding inhibition, 19Thy (converted)", "experimental": "as §1"}, "HIV-1, strain HTLV-IIIB": {"system": "HIV-1, strain HTLV-IIIB", "format": "cell-based", "details": "CEM-T4 cells, day 8; PIC 024.4 30% polymer by weight", "protocol": "Dilutions were prepared in culture medium, and the compound was tested at concentrations ranging from 100 μg/ml to 0.003 μg/ml in half-log10 dilutions.\nThe assay was done in 96-well tissue culture plates using the CEM-T4 human T-lymphocyte cell line. The culture medium used was RPMI-1640 medium containing 25 mM N-[2-Hydroxyethyl]piperazine-n^1-[2-ethanesulfonic acid] (HEPES, Sigma Chemical Co.) and 2 mM L-glutamine, and supplemented with 10% fetal bovine serum, 2 mM L-glutamine, 50 units of penicillin G per ml, and 50 μg streptomycin sulfate per ml. CEM-T4 cells were treated with polybrene at a concentration of 2 μg/ml, and a 130 μl volume of cells (1×10^4 cells) was dispensed into each well. To one assay plate for each drug a 50 μl volume of each drug dilution (prepared as a 4×concentration) was added to five wells of cells, and the cells were incubated at 37° C. for two hours. […]\nOn the eighth day post-infection, the cells in each well were suspended and a 50-μl sample of each cell suspension was transferred to a new 96-well plate for use in the following assay. […] The absorbance at 590 nm was determined for each sample using a Molecular Devices Vmax microplate reader. […] When a dose-dependent effect for either CPE-inhibition or toxicity was seen, values for the 50% effective dose were calculated using the dose-effect analysis software of Chou and Chou (Elsevier-Biosoft)."}, "[5]": {"biological_target": "T5, gp120 binding to CD4 receptor on lymphocytes in whole blood (Homo sapiens, UniProt P01730)", "T5 construct": "the CD4 receptor expressed on the surface of lymphocytes in whole blood; from tissue; host or cells: freshly collected anticoagulated whole blood from normal donors", "format": "cell-based", "details": "gp120-biotin 10 nM", "experimental": "This assay was used to measure the ability of test compounds to inhibit the binding of recombinant gp120 to the CD4 receptor expressed on the surface of lymphocytes in whole blood. Freshly collected, anticoagulated whole blood from normal donors (100 μl per tube) was treated with test compound and incubated for 2 hours at room temperature. The tubes were then treated with gp120-biotin (American Bio-Technology Products) to a final concentration of 10 nM, and incubated for an additional 3 hours at room temperature. Cells were then stained with fluorescein-labeled streptavidin (Becton Dickinson), treated with lysis buffer (Becton Dickinson), and washed with PBS containing 0.1% azide. Cells were then subjected to flow cytometric analysis on a FACScan™ flow cytometer (Becton Dickinson) and the mean fluorescence for the lymphocyte population was measured. Percent inhibition of fluorescence was determined relative to cells that were not treated with drug."}, "[6]": {"biological_target": "T6, gp120 binding to CD4 receptor on CEM cells (Homo sapiens, UniProt P01730)", "T6 construct": "the CD4 receptor expressed on the surface of lymphocytic cells; endogenous in cells; host or cells: CEM cells", "format": "cell-based", "details": "recombinant gp120 (IIIB) 10 nM; PIC 024.4 based on 100% polymer by weight", "protocol": "This assay was used to measure the ability of test compounds to inhibit the binding of recombinant gp120 to the CD4 receptor expressed on the surface of lymphocytic cells. Cells of the CEM line (a CD4+ human T cell leukemia line) were suspended at 3×10^6 cells/ml in RPMI 1640 medium supplemented with 10% fetal bovine serum (FBS) containing 0.002% sodium azide, and 100 μl was aliquoted to individual assay tubes. Serial dilutions of test compound in water were added (10 μl/tube) and the tubes incubated for 2 hours at 25° C. Next, recombinant gp120 (IIIB isolate) diluted in RPMI 1640 buffer was added to a final concentration of 10 nM (1.2 μg/ml) and the tubes incubated overnight at 37° C. Cells were then washed thoroughly with PBS containing 10% FBS and 0.01% sodium azide. V3-specific monoclonal antibody NEA9284 was added to a concentration of 1 μg/ml and incubated for 30 minutes on ice. The cells were washed thoroughly as before and stained with fluorescein-labeled goat anti-mouse immunoglobulin for 30 minutes on ice. The washed cells were analyzed for mean fluorescence on a FACScan™ flow cytometer (Becton Dickinson). Percent inhibition of fluorescence was determined relative to cells that were not treated with drug."}, "IIIB": {"system": "IIIB", "details": "cited from earlier work"}, "gp120 (SF2 isolate)/sCD4": {"biological_target": "T7, gp120 (SF2 isolate)/sCD4 (Homo sapiens, UniProt P01730)", "T7 construct": "recombinant sCD4 was immobilized to the sensor surface", "format": "binding", "source_text": "This assay provided a direct measure of the ability of test compounds to inhibit the gp120/CD4 binding interaction. The BIAcore™ biosensor (Pharmacia Biosensor) allows for real-time interaction analysis without the need for labeling (Jonsson et al., BioTechniques 11:620-627 (1991); Malmquist, Nature 361:186-198 (1993)). Its operation is based on optical surface plasmon resonance (SPR) for detecting small changes in the refractive index on the surface of a thin gold film coated with a dextran matrix to which one ligand is immobilized. In the experiments described here, recombinant sCD4 was immobilized to the sensor surface by a standard amine coupling chemistry. Recombinant gp120 (SF2 isolate), alone or in the presence of test compound, was passed over the surface, and binding monitored by a change in “resonance units” (RU's). Percent inhibition was determined relative to RU levels observed in the absence of drug. A correction was made to account for the mass of the test article."}, "monocytotropic isolates": {"system": "monocytotropic isolates", "details": "cited from earlier work"}}, "note": "Like-named read-outs stand apart in the source and are kept apart here."}
{"compound": "Cc1cn([C@H]2C[C@H](N=[N+]=[N-])[C@@H](CO)O2)c(=O)[nH]c1=O", "note": "[AZT, zidovudine]", "values": [{"measurement": "IC50 syncytium inhibition (HL2/3)", "setting": "[1]", "result": "inactive"}, {"measurement": "p24 levels", "setting": "HIV-1 (JR-CSF); 0.004-50 μM, drug added 2 hours prior to infection", "result": "substantially reduced"}, {"measurement": "Antiviral Activity ID50, JR-CSF", "setting": "HIV-1 (JR-CSF); PHA blasts, PIC 024.4 30% polymer by weight", "result": 1, "unit": "ng/mL"}, {"measurement": "Table 8 readout of HIV-1 14aPre growth", "setting": "HIV-1 14aPre; AZT 0.005 μM alone", "result": 25}, {"measurement": "Table 8 readout of HIV-1 14aPre growth", "setting": "HIV-1 14aPre; AZT 0.01 μM alone", "result": 17.5}, {"measurement": "Table 8 readout of HIV-1 14aPre growth", "setting": "HIV-1 14aPre; AZT 0.02 μM alone", "result": 9.8}, {"measurement": "EC50", "setting": "HIV-1 (ADA); 168 h, read-out: EC50, Day 7", "result": 5, "unit": "ng/mL"}, {"measurement": "EC90", "setting": "HIV-1 (ADA); 168 h, read-out: EC90, Day 7", "result": 0.02, "unit": "µg/mL"}, {"measurement": "EC50", "setting": "HIV-1 (ADA); 336 h, read-out: EC50, Day 14", "result": 3, "unit": "ng/mL"}, {"measurement": "EC90", "setting": "HIV-1 (ADA); 336 h, read-out: EC90, Day 14", "result": 0.01, "unit": "µg/mL"}]}
{"compound": "O=C(O)C1=CC(=C(c2ccc(O)c(C(=O)O)c2)c2ccc(O)c(C(=O)O)c2)C=CC1=O", "note": "[Aurintricarboxylic acid]", "values": [{"measurement": "IC50 MAb binding inhibition, OKT4", "setting": "[2]", "result": "did not affect"}, {"measurement": "IC50", "setting": "gp120/CD4", "result": "~2370", "unit": "nM"}, {"measurement": "IC50", "setting": "[3]", "result": 294, "unit": "µM"}, {"measurement": "IC50", "setting": "[4]", "result": 206, "unit": "µM"}]}
{"compound": "OC[C@@H]1CC[C@H](n2cnc3c(O)ncnc32)O1", "note": "[ddI, 2′,3′-Dideoxyinosine]", "values": [{"measurement": "Antiviral Activity ID50, IIIB", "setting": "HIV-1, strain HTLV-IIIB", "result": 1.2, "unit": "µg/mL"}, {"measurement": "Table 8 readout of HIV-1 14aPre growth", "setting": "HIV-1 14aPre; DDI 1.25 μM alone", "result": 36.5}, {"measurement": "Table 8 readout of HIV-1 14aPre growth", "setting": "HIV-1 14aPre; DDI 5 μM alone", "result": 11.2}, {"measurement": "Table 8 readout of HIV-1 14aPre growth", "setting": "HIV-1 14aPre; DDI 10 μM alone", "result": 1.2}]}
{"compound": "dextran sulfate", "values": [{"measurement": "IC50 gp120/whole blood binding inhibition", "setting": "[5]", "result": "≥ 1000", "unit": "µg/mL"}, {"measurement": "IC50 syncytium inhibition (HL2/3)", "setting": "[1]", "result": 0.9, "unit": "µg/mL"}, {"measurement": "IC50 gp120/CEM binding inhibition", "setting": "[6]", "result": 23, "unit": "µg/mL"}, {"measurement": "IC50 gp120/CD4 binding inhibition (ELISA)", "setting": "gp120/CD4; recombinant gp120 IIIB, recombinant sCD4, PIC 024.4 based on 100% polymer by weight", "result": "inactive"}, {"measurement": "Antiviral Activity ID50, IIIB", "setting": "IIIB; AHT 8", "result": 8, "unit": "µg/mL"}, {"measurement": "Antiviral Activity ID50, IIIB", "setting": "IIIB; TM 11", "result": 4, "unit": "µg/mL"}, {"measurement": "IC50 BIAcore inhibition", "setting": "gp120 (SF2 isolate)/sCD4", "result": "inactive"}, {"measurement": "activity against many monocytotropic isolates", "setting": "monocytotropic isolates", "result": "inactive"}]}
